Positions of bridges follow the written chain, without caps; N, C: chain ends. No end group written: not given here.
System: 3T3 cells
Experiment: Increase of intracellular calcium ion concentration by addition of endothelin
Format: cell-based
Details: mouse 3T3 cells; endothelin-1 0.01 to 100 ng/ml; relative fluorescence intensity; Figure 4
Procedure: It is known that addition of endothelin into culture cell causes the elevation of intracellular Ca^2+ concentration.
Commercially available 3T3 cells (ATCC No.CCL92) cultured in a flask according to the standard method were used in the experiments. The cells adhered to a inner wall of the flask were harvested by trypsinization treatment, washed three times with Ca^2+-free phosphate buffered saline (PBS) and suspended into 200 µl of the Ca^2+-free PBS. Into the cell suspension, a fluorescent indicator of Ca^2+, FLUO-3AM (Wako chemicals: 1 mM in DMSO solution), was added at a final concentration of 1 µM. The cells were incubated at 37°C for 10 minutes to allow them to uptake the indicator. […]
The increase in relative fluorescence intensity caused by Ca^2+ influx was measured with FACScan of Becton, Dickinson & Co.. In the measurement, a base line was determined over 20 seconds, then a test substance (for example endothelin) was added into the sample and followed the time course of the relative fluorescence intensity for about 80 seconds.
Into each aliquots of the above cell suspension, endothelin-1 was added at a final concentration of 0.01 to 100 ng/ml to observe the changes in the relative fluorescence intensity.

endothelin-1 (CSCSSLMDKECVYFCHLDIIW; disulfide 1-15, 3-11; ends not checked; UniProt P05305 53-73, looked up)
increase of intracellular calcium ion concentration: increase of the intracellular calcium ion concentration occurs in proportion to the concentration of endothelin

— patent publication EP0672421B1, “ENDOTHELIN ACTIVITY INHIBITOR” (Kurashiki Boseki Kabushiki Kaisha, priority 1993, dated 2002)
